Series [1] in a line: Body weight and food consumption during 2 weeks of diet intervention after 8 weeks of HF diet. It is filed as in vivo, adipose prone mice of the C57BL/6J strain. As to conditions: FIG. 10; last 2 weeks of experimental diets after 8 weeks HF diet; PRBs 1.5% of fat content, rosiglitazone 100 mg/KG diet. As to the method: The animals (n=8 in each group) were fed high fat diet (fat constituting 60% of total calories, the same diet as used in Block 5) for 8 weeks. Thereafter they were given the PRBs in a dose of 1.5% of the fat content of the diet for another two weeks. The rosiglitazone group was given an amount of 100 mg/KG diet. The control groups continued with either only high fat diet or standard chow.

A further series has as its target T1, PPARα receptor (Rattus norvegicus, UniProt P37230).
T1 construct: host or cells: rat liver cells
T1 sequence (P37230 1-468): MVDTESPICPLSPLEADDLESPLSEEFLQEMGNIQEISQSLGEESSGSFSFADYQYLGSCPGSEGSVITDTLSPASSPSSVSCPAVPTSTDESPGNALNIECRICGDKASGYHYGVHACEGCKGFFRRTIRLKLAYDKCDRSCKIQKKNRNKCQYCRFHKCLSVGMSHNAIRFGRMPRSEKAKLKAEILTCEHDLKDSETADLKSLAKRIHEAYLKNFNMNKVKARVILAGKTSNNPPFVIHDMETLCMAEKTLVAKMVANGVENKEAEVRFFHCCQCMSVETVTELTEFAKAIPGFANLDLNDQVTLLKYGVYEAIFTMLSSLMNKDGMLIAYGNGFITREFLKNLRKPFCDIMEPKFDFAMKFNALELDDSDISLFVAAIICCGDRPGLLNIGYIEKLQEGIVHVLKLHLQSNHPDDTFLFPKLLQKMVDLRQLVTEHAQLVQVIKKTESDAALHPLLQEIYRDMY
As to conditions: rat liver cells (Pawar & Jump 2003); cited from earlier work.

For series [2] the following is noted: Vaagenes 1999; cited from earlier work.
A short description of series [3]: Effect of DHA derivatives in adipose prone mice during 4 months of dietary interventions (Example 5a). It is filed as in vivo, male C57BL/6 mice. As to conditions: for Insulin: plasma. Also on record: AUC: unit not given beside the values. As to the method:
All experiments were performed on male C57BL/6 mice, either a substrain C57BL/N (supplier: Charles River, Germany, n=160, experiments A-C, see below), or a substrain C57BL/6J (supplier: the Jackson laboratory, Bar Harbor, Me., USA, n=32, experiment D). Total numbers of animals used were higher (n=170 and 36, respectively), because of culling. In the latter case, animals were bred for several generations (<20) at the Institute of Physiology. At the beginning of the treatment, animals were 14-week-old and their body weight range was 23.6-27.1 g. One week before the study start, animals were sorted according to their body weight and assigned to subgroups (n=8) of similar mean body weight. This method allowed for culling of about 5-10% of animals showing the lowest and highest body weight, respectively. The animals eliminated from the study at this stage were sacrificed by cervical dislocation. Complete health check of mice was performed by the supplier Charles River and at the start of study serological tests were performed by ANLAB (Prague, Czech Republic). In addition, regular health checks were performed in the animal house in 3-mo-intervals using sentinel mice and serological examinations (ANLAB). In all the tests, the animals were free of specific pathogens.
• (i) Chow diet (ssniff R/M-H from SSNIFF Spezialdieten Gmbh, Soest, Germany; see also http://ssniff.de) with protein, fat and carbohydrate forming 33, 9, and 58 energy %, respectively • (ii) High-fat diet prepared in the laboratory (cHF diet) with protein, fat and carbohydrate forming 15, 59, and 26 energy %, respectively, and well characterized fatty acid composition (with most of the lipids coming from corn oil; see Ruzickova 2004) • (iii) cHF diets in which 0.15, 0.5, and 1.5% of fat (specifically the corn oil constituent) was replaced by various PRB-compounds, namely PRB1, PRB2, PRB5, PRB7, and PRB8, or by DHA. All these compounds were in the form of ethyl esters, provided by Pronova Biocare a.s. in sealed containers. Chemical composition of the PRB-compounds was unknown to the laboratory performing the experiments (Institute of Physiology, Academy of Sciences Prague, Czech Republic).
The study was based on 4 individual experiments. In each of the experiments, different PRB-compounds (or DHA, respectively) admixed to cHF diet in three different concentrations (0.15, 0.5, and 1.5% of the fat content) were tested. In each experiment, a subgroup of plain cHF diet-fed mice was included and served as a control. Mice were caged in groups of 4 and fed standard chow diet until 3 mo of age, when animals (n=8-13) were randomly assigned to the different test diets. After 2 mo on this new diet (at 5 mo of age), animals were fasted overnight and in the morning, intraperitoneal Glucose Tolerance Test (GTT) was performed. Animals were sacrificed after 4 months on the experimental diets, at 7 mo of age, and the end-point analysis were performed.

The target in another series is T2, PPARγ (Homo sapiens, UniProt P37231).
T2 construct: For full length PPAR transfection studies, each well received 5 μg reporter construct; expressed in transfected cells; host or cells: COS-1 cells
T2 sequence (P37231 1-505): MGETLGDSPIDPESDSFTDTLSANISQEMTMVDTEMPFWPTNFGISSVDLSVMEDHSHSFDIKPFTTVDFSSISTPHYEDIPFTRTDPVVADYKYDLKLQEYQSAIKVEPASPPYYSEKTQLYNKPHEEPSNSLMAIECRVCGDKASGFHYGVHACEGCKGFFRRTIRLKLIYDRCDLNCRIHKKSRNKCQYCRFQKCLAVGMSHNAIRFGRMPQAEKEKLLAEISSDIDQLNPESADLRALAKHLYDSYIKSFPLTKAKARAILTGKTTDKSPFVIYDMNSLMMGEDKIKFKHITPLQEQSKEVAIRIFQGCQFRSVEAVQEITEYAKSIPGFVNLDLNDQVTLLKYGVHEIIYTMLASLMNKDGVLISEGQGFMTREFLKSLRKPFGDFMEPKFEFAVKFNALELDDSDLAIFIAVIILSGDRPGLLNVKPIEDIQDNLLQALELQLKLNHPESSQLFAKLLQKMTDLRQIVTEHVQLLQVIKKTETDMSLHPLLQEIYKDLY
The experiment in a line: Affinity testing in transfected cells (release of luciferase). It is filed as cell-based. The conditions noted are these: FIG. 8; 10 μM of PRBs. As for the experimental part: Release of luciferase is correlated to transcription of genes. Binding of a ligand to a nuclear receptor such as PPARγ induces transcription of the respective gene thereby releasing luciferase. This technique therefore provides a measure of ligand affinity to the receptor as well as activation of the responsible gene.
Transient transfection of COS-1 cells was performed in 6-well plates as described by Graham and van der Eb (Graham). For full length PPAR transfection studies, each well received 5 μg reporter construct, 2.5 μg pSV-β-galactosidase as an internal control, 0.4 μg pSG5-PPARγ2. The cells were harvested after 72 h, and the luciferase activity was measured according to the protocol (Promega). The luciferase activity was normalised against β-galactosidase activity. The adipocytes were transfected at D11 of differentiation using 16 μl LipofectaminPlus reagent, 4 μl Lipofectamine (Life Technologies Inc.), 0.2 μg pSG5-PPARγ, and 100 ng pTK Renilla luciferase as control of transfection afficiency. […] The luciferase activities were measured as recommended by the manufacturer (Dual Luciferase assay, Promega). […]
Fatty acids (BRL or DHA) and PRBs (stock solutions) were solubilized to 0.1 M final concentration in DMSO. […] Luciferase activity was measured using a luminometer (TD-20/20 luminometer; Turner Designs, Sunnycvale, Calif.) and normalized against protein content.

In a further series the target is T3, PPARα (Homo sapiens, UniProt Q07869).
T3 sequence (Q07869 1-468): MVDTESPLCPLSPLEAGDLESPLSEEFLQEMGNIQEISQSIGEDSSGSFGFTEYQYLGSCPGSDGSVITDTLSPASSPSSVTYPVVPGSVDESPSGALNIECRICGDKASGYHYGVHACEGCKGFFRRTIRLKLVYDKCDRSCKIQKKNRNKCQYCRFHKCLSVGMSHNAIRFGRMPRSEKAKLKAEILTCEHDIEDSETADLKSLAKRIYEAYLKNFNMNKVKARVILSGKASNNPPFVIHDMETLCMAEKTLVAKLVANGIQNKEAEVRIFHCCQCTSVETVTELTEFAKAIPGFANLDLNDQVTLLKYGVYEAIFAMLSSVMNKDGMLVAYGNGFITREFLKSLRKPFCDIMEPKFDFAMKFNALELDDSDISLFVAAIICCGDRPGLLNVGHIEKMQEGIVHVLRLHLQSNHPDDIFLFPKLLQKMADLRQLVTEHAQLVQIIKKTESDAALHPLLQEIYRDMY
The conditions noted are these: Larsen 2005; cited from earlier work.

The test system of series [4] is platelet aggregation. The conditions noted are these: in vivo (Willumsen 1998); cited from earlier work.
The test system of series [5] is platelet aggregation. The conditions noted are these: in vitro (Larsen 1998); cited from earlier work.
The conditions of series [6]: Larsen 1998; cited from earlier work.

Structures are written as SMILES. Like-named read-outs stand apart in the source and are kept apart here.

We go through nine compounds from patent publication US7550613B2, “Compounds” (Pronova Biopharma Norge AS, priority 2005, dated 2009).

Consider `CC/C=C\C/C=C\C/C=C\C/C=C\C/C=C\C/C=C\CCC(=O)O` [DHA, (all-Z)-4,7,10,13,16,19-docosahexaenoic acid], for which, in series [1], the “change of body weight” value was “completely stopped the weight gain and even led to reduction of body weight”. For the same compound, the “binding capacity to the PPARα receptor” value on PPARα receptor is on record as “highest binding capacity”.
Regarding `CC/C=C\C/C=C\C/C=C\C/C=C\C/C=C\CCCC(=O)OCC` [EPA EE], the “plasma free fatty acid” value in series [2] is given as “had no effect”.
On to `CC/C=C\C/C=C\C/C=C\C/C=C\C/C=C\CCCC(=O)O` [EPA, (all-Z)-5,8,11,14,17-eicosapentaenoic acid], for which the “binding capacity to the PPARα receptor” value on PPARα receptor is reported as “highest binding capacity”.
Take `CC/C=C\C/C=C\C/C=C\C/C=C\C/C=C\C/C=C\CC(C)C(=O)OCC` (stereo not drawn) [PRB-1, α-methyl docosahexaenoic acid ethyl ester]: the “Body wt. gain” value in series [3] (4 months, 0.15% concentration) came to 22.9 ± 1.1 grams. In series [3] (intraperitoneal glucose tolerance test, 1.5% concentration), this compound came in with an AUCglucose of 913 ± 68 mM × 180 min. The Insulin in series [3] (4 months, 0.15% concentration) is recorded as 3.50 ± 0.29 ng/mL; in series [3] (4 months, 1.5% concentration), 2.73 ± 0.33 ng/mL.
`CC/C=C\C/C=C\C/C=C\C/C=C\C/C=C\C/C=C\CC(SC)C(=O)OCC` (stereo not drawn) [PRB-6, α-tiomethyl docosahexaenoic acid ethyl ester]: at PPARγ, the “release of luciferase from transfected cells” value is on record as “significantly higher release of luciferase”.
For the compound `CC/C=C\C/C=C\C/C=C\C/C=C\C/C=C\C/C=C\CC(CC)(CC)C(=O)OCC` [PRB-8, α,α di-ethyl docosahexaenoic acid ethyl ester], the “body weight (BW)” value in series [3] (2 months intervention, 1.5%, controls 29.6±0.9) is 28.0±0.7 grams. The compound also showed an AUC in series [3] (2 months intervention, 1.5%, controls 1074±91) of 1031±104.
On to `CC/C=C\C/C=C\C/C=C\C/C=C\C/C=C\CCC(CC)C(=O)O` (stereo not drawn) [α-ethyl EPA], for which the “activation of the nuclear receptor PPARα” value at PPARα is reported as “equal strength as α-methyl EPA”.
For `CC/C=C\C/C=C\C/C=C\C/C=C\C/C=C\CCC(C)C(=O)O` (stereo not drawn) [α-methyl EPA], the “inhibition of platelet aggregation” value in the series on platelet aggregation [4] and with platelet aggregation [5] was “stronger inhibitor of platelet aggregation than EPA” each time. Further, in [6], the “incorporation into phospholipids and triglycerids” value is “is incorporated into phospholipids and triglycerids”.
Take `CC/C=C\C/C=C\C/C=C\C/C=C\C/C=C\CC(C)CC(=O)O` (stereo not drawn) [β-methyl EPA]: in series [6], the “incorporation into phospholipids and triglycerids” value was “is incorporated into phospholipids and triglycerids”.
